Test results as given in patent US8771652B2, “Methods of blocking ultraviolet radiation and promoting skin growth using terpenes and terpenoids” (New York University, priority 2009, dated 2014).
Like-named read-outs stand apart in the source and are kept apart here.

Key:
[1] = system: human transplanted pancreatic adenocarcinomas; settings: in vivo; cited from earlier work
skin [2] = settings: in vivo; cited from earlier work
[3] = system: skin of SKH1 hairless mice; assay: Sunburn (erythema) prevention by terpenes with solar-spectrum UVR exposure; format: in vivo, mouse; settings: 4 daily 30 microL droplets before 15 minute exposure to 3.0 kJ/m2 UVR
Experimental: All experiments were performed with female hairless mice (SKH1) utilizing solar spectrum ultraviolet radiation (UVR). Each experiment was performed in triplicate including controls and UVR-exposed mice and included a total of 22 mice per experiment for a total of 66 mice. The protocol included untreated mice, UVR-irradiated mice as controls for the terpene treatments, UVR+terpene mice and terpene-only mice.
Four solar simulating FS-20 fluorescent lamps were used to deliver 3 kJ/m^2 measured by a calibrated International Light UV radiometer at the lamp distance between 20 to 24 cm. The UVR dose was selected to be just above the minimal erythemal dose for producing a ‘sunburn’ reaction in mouse skin (this is very similar to the minimal erythemal dose of fair-skinned humans).
Each terpene was given to each mouse per os (by mouth) in 15-30 μL droplets (˜15-30 μg) via micropipette once each day for 4 consecutive days prior to and/or subsequent to UVR exposure. Animals were observed and photographed every 24 hours for a period of 6-7 days after the irradiation. Each terpene was administered in pure form. […] The UVR exposure of 3 kJ/m^2 was delivered seven (7) days after the last dose was administered. The animals were observed and photographed. […] Liponeate, a triglyceride fraction of coconut oil was used as a diluent. Concentration 1, 10 and 100% were tested. […]

[4] = system: epidermis (keratinocytes, keratin layer) of SKH1 hairless mice; assay: Histology of skin after terpene pre-feed and UVR; format: in vivo, mouse; settings: for keratinocyte formation: ingestion, animal models
Experimental: Histopathological diagnosis was performed on the skin samples.
Animals for the histology and microarray analysis were euthanized 24 hours after 4 days of terpene pre-feed and the UVR exposure. Tissue samples from skin and other organs were frozen and prepared for histological diagnosis and for microarray analysis, which consisted of testing gene expression by utilizing Affymetrix mouse microarray chips containing about 39,000 transcripts with 45,101 probe sets.

skin [5] = settings: in vivo; cited from earlier work; remark: listed apart in the source
skin [6] = settings: guinea pig, in vivo; cited from earlier work
skin [7] = settings: mouse, in vivo; cited from earlier work
[8] = system: gene expression in mouse dorsal skin; assay: Affymetrix gene expression microarray of mouse skin after terpene and UVR; format: in vivo; settings: for loricrin and vascular endothelial growth factor (VEGF) genes / matrix metalloproteinases: ingestion, animal models; for inflammation genes induced by UVR: per os daily for 4 days in 30 microL droplets prior to irradiation
Experimental: Animals for the histology and microarray analysis were euthanized 24 hours after 4 days of terpene pre-feed and the UVR exposure.
Gene expression microarray analysis was performed as follows: RNA was extracted from a 0.1 g sample of mouse skin and an equal quantity of keratinocytes by using the TRIZOL reagent (Invitrogen, Carlsbad, Calif., USA) according to the manufacture's instructions and 200 μg of total RNA was used for the isolation of poly A+ mRNA by using Oligotex mRNA mini columns (QIAGEN, Valencia, Calif., USA). The final centrifugation was performed after the incubation with 1/10 volume of 3.0 M NaOAc, 2.5 volumes of ethanol and 1 μl glycogen (Boehringer Mannheim GmbH, Mannheim, Germany) at −20° C. overnight. Then the pellet was resuspended in diethylpyrocarbonate (DEPC)-treated water. RNA was labeled with biotin and hybridized to a Mouse genome 430—2 GeneChip® microarray (Affymetrix, Inc. Santa Clara, Calif., USA). Data from the Affymetrix mouse expression array chip were imported into the BRB-ArrayTools Version 3.3.0 developed by the Biometric Research Branch of the U.S. National Cancer Institute for normalization and analysis. […] A value of P≦0.001 was chosen as statistically significant. […] For these calculations the entire list of genes on the Affymetrix (mouse 430—2) microarray was used as the reference list.
Mice were treated with either UVR or UVR+beta-damascenone, and samples of tissue were removed from the dorsal skin for RNA extraction and analysis on an Affymetrix Microarray System utilizing mouse whole genome array chips Affy 430—2. The UVR sample served as the control in this preliminary experiment.

[9] = in vivo; cited from earlier work
breast cancer = settings: rats, without any evidence of toxicity; cited from earlier work
[10] = at concentrations in normal strength grapefruit juice (approximately 0.0035%, or 35 ppm); cited from earlier work
[11] = system: UVB-induced non-melanoma tumors; settings: mouse, in vivo; cited from earlier work
melanoma cells = settings: topical pretreatment but not post-treatment; cited from earlier work
colon cancer = settings: rats, 8 mg/kg, p<0.01; cited from earlier work
[12] = system: inflammation-relevant gene expression in rat skin; settings: cited from earlier work

CC(C)=CCC/C(C)=C/CO [Geraniol]
effectiveness against tumor growth relative to perillyl alcohol [1]: about 5 fold

C/C=C/C(=O)C1=C(C)C=CCC1(C)C [beta-damascenone]
skin irritation (skin [2]): No skin irritation | cutaneous inflammation and erythema associated with UVR exposure [3]: blocked | keratinizing layer in the epidermis, terpene+UVR in comparison to UVR ([4]; histological observations): greatly increased | keratinocyte formation [4]: increased keratinocyte formation | phototoxicity or photoallergenity (skin [5]): No phototoxicity or photoallergenity | skin irritation (skin [6]): No skin irritation | skin irritation (skin [7]): No skin irritation | significantly altered up-regulated category at level 4 of the Gene Ontology Tree ([8]; UVR+terpene relative to UVR only, p<0.05): epidermal cell differentiation | loricrin and vascular endothelial growth factor (VEGF) genes [8]: upregulation | matrix metalloproteinases [8]: downregulation | inflammation genes induced by UVR [8]: blocked | inflammation-relevant genes ([8]; terpene+UVR relative to UVR only): strongly down-regulated | number of gene categories significantly down-regulated ([8]; terpene+UVR relative to UVR only, p<0.05): 13 categories | LD50 [9]: greater than 2.0 g/kg

C=C(C)[C@H]1CC=C(C)CC1 [d-limonene]
initiation of breast cancer (breast cancer): almost completely prevented

C=C(C)[C@@H]1CCC2=CC(=O)C[C@@H](C)[C@]2(C)C1 [nootkatone]
cutaneous inflammation and erythema associated with UVR exposure [3]: blocked | keratinocyte formation [4]: increased keratinocyte formation | loricrin and vascular endothelial growth factor (VEGF) genes [8]: upregulation | matrix metalloproteinases [8]: downregulation | inflammation genes induced by UVR [8]: blocked | toxicity [10]: does not appear to be toxic

C=C(C)[C@@H]1CC=C(CO)CC1 [perillyl alcohol]
UVB-induced non-melanoma tumors [11]: reduction | levels of UV-induced reactive oxygen species (melanoma cells): markedly reduced | initiation of breast cancer (breast cancer): almost completely prevented

Oc1ccc(C=Cc2cc(O)cc(O)c2)cc1 [resveratrol]
inhibition of colon cancer (colon cancer): 67%

vitamin A
inflammation-relevant gene expression alterations caused by x-rays blocked [12]: about 80% | gene expression in controls ([12]; unirradiated controls): no effect
